Like-named read-outs stand apart in the source and are kept apart here.
What was measured:
[1] = system: LnCAP human prostate cancer cells; test: LnCAP Gene Expression; type: cell-based; conditions: Homo sapiens, LNCaP
ORX Wistar male rats = test: In Vivo Study to Explore Direct Antagonist Effect of Example 1 in the Presence of TE; set-up: species or system rat
Experimental: Route of administration for all groups except TE is oral. TE is administered subcutaneously. At the end of 8 weeks of daily dosing, rats are euthanized, weighed & tissue harvested. Levator ani, prostates, and seminal vesicles are collected from each animal. Results are plotted as means±SE.

Orx rats = test: Orchidectomized Rat Assay; type: in vivo; conditions: PTH 10 ug/Kg/d sc, once daily 2 months
[2] = ORX + TE 1 mg/kg/d (control group of Dunnett's comparison)
[3] = ORX + TE 1 mg/kg/d sc alone, 8 weeks

C[C@]1(O)CC[C@H]2[C@@H]3CCC4=CC(=O)CCC4=C3C=C[C@@]21C [Example R1881]
EC50 ([1]; AR gene, read-out: LnCAP Gene Expression EC50 (nM) AR): 0.035 nM
EC50 ([1]; CLUSTERIN gene, read-out: LnCAP Gene Expression EC50 (nM) CLUSTERIN): 0.37 nM
EC50 ([1]; PSA gene, read-out: LnCAP Gene Expression EC50 (nM) PSA): 0.034 nM

CCCCCCC(=O)O[C@H]1CC[C@H]2[C@@H]3CCC4=CC(=O)CC[C@]4(C)[C@H]3CC[C@]12C [TE, testosterone enanthate, reference compound]
Prostate Weights, Abs(Dif) − LSD (ORX Wistar male rats; [2]): −0.15
Seminal Vesicle Wet Weights, Abs(Dif) − LSD (ORX Wistar male rats; [2]): −0.52
Prostate Weight, % Sham (ORX Wistar male rats; [3]): 45.5 % Sham
SV Weight, % Sham (ORX Wistar male rats; [3]): 58.5 % Sham

PTH: PTH (1-38) (Zeneca (Cambridge Research Biochemicals)), given sc as an injection (SVSEIQLMHNLGKHLNSMERVEWLRKKLQDVHNFVALG; Parathyroid hormone; UniProt P01270 32-69, looked up, fragment) [reference compound]
SV Weight, % Sham (Orx rats): 5.6 % Sham

— patent publication US10799478B2, “Treatment of androgen deprivation therapy associated symptoms” (priority 2014, dated 2020)
